This note sets out measurements from publication PMC11078746 (Nature, 2024).

Each structure is given as a SMILES string.

One series has as its system TK6. The experiment in a line: in vitro TK6 MNT. It is filed as cell-based.
Another series relates to HCT116 cells. To be noted: after HRO761 treatment. Here is the method: Membranes were incubated overnight with the primary antibodies and for 1 h with the secondary antibodies. Washing steps were performed with 1× PBS containing 0.01% Tween-20. […] We performed the immunoblots three times except for blots shown in Figs. 2e and 4c and Extended Data Figs. 6b and 8f, which were performed twice. […] Uncropped and unprocessed scans of all blots are available as a Supplementary Figs. 1 (main text figures, which contain Figs. 2d,e, 3a,g and 4c) and 2 (Extended Data Figs. 1d,h,i, 3b–e,h,i, 5, 6a,b, 7c, 8b,g) in the Supplementary Information.

Another series concerns MSI CDX and PDX models. Description: In vivo screen in a panel of CDX and PDX models. The arrangement: species or system mouse. The settings on record: 60 or 120 mg per kg once daily. Here is the method:
All animal studies were conducted in accordance with ethics and procedures covered by permit BS-2275 and BS-1975 issued by the Kantonales Veterinäramt Basel-Stadt and in strict adherence to guidelines of the Eidgenössisches Tierschutzgesetz and the Eidgenössische Tierschutzverordnung, Switzerland. All animal studies were approved by the internal ethics committee. All animals had access to food and water ad libitum and were identified with transponders. They were housed in a specific-pathogen-free facility in IVC racks under a 12 h–12 h light–dark cycle. To establish cell-line-derived xenograft models, 6–7-week-old female athymic nude (Crl:NU(NCr)-Foxn1^nu) or SCID-BEIGE (CB17.Cg-PrkdcscidLystbg-J/Crl) mice from Charles River were engrafted subcutaneously with 5 million tumour cells in HBSS (H6648, Sigma-Aldrich). For SNU-407, Lovo, IM95, RL95.2, Ishikawa and IGROV-1, the cells were concentrated in 50% Matrigel (354234, Corning). Patient-derived xenografts were induced and expanded by transplantation as previously described. […] For the efficacy experiment, mice were randomized into groups (n = 5–6) for a mean tumour size of 100–150 mm^3. […] Blood samples were collected on day 7 and 91. […] Tumour responses are reported with the measures of tumour volumes from the treatment start. […] Animals were randomized (n = 3) and tumour samples were collected at 0, 1, 4, 8 and 24 h on the first day and then collected 4 h after the last treatment on day 3, 8, 10, 14 (including a 24 h timepoint), 17 and 21. Tumours were excised, weighed, either frozen in liquid nitrogen and cryogenic dry pulverized with the CryoPrep system (model CP-02, Covaris) or processed to FFPE after fixation. […] On day 12, blood samples were collected for PK analysis. On the last day (3 h after the last treatment), tumours were excised, weighed, frozen in liquid nitrogen and cryogenic dry pulverized for PD analysis.

For another series, the system named is HEC265. The experiment in a line: CFA 10-14 day clonogenic assay. It is filed as cell-based. To be noted: Homo sapiens.
The subject of the next series is 2313287. The experiment in a line: 4 day proliferation assay (CellTiter-Glo). The settings on record: Homo sapiens, 96 h, read-out: 4 day assay GI50. For orientation: In ATP-based viability assays light output follows the ATP content of the culture.

Broadly, the GI50 is the concentration that inhibits growth by half. Turning to `CCc1c(N2CCN(C(=O)c3ncnc(C)c3O)CC2)c(=O)n2nc(C3=CCOCC3)nc2n1CC(=O)Nc1ccc(C(F)(F)F)cc1Cl` [HRO761], in the series with TK6, the “in vitro TK6 MNT” value is “Negative”. For the same compound, the “start of WRN degradation” value in the series with HCT116 cells was 8 h. In the series with MSI CDX and PDX models, the complete responses is given as 9%, the disease control rate result is “approximately 70%”, the partial responses was 30% and the stable diseases came to 35%. The GI50 in the series with HEC265 was 0.061 µM. The GI50 in the series with 2313287 was at least 10 µM.
